Test results as given in US20020123080A1, “Inhibiting proliferation of cancer cells” (Tufts University, priority 1996, published 2002).

Tested on: MCF-7 cells
Assay: MCF-7 cell proliferation yield assay (nuclei counted after 4 days) with or without hormone
Type: cell-based, human
Settings: hormone added with the inhibitor (CDHuS, CDHA, rHA); estradiol at 100 pM; the other hormones tested against rHA, data not shown
Description: A clonal population of the human breast cancer MCF-7 cell line was used in some of the experiments described below. These cells were routinely grown in 5% fetal bovine serum (FBS) supplemented-Dulbecco's Modified Eagle's Medium (DME). […] Estrogen non-target, serum-insensitive human breast cancer MDA-MB231 cells (ATCC, Rockville, Md.) were used as controls; they were grown under the same conditions as MCF-7 cells.
To assess the inhibitory effect of serum or purified protein preparations, 4×10^4 cells/well were seeded in 12-well Falcon Multiplates in 5% FBS; they were allowed to attach for 24 h before exposing them to test medium. Cell proliferation yields were measured after 4 days in DME plus 25 ug transferrin (T)/ml and 100 ng insulin (I)/ml ([…]) alone, or ITDME plus CD human serum (CDHuS), or purified protein preparations. Each sample was tested in duplicate in the presence or absence of 100 pM estradiol (E2) and each experiment was repeated at least three times. Phenol red-free media were used in all experiments involving cell proliferation rates or yields. Cells were lysed and nuclei counted on a Coulter Counter Model ZM.

Compound	reversal by hormone of the inhibitory effect on MCF-7 proliferation
C[C@]12CCC(=O)C[C@@H]1CC[C@@H]1[C@@H]2CC[C@]2(C)[C@@H](O)CC[C@@H]12 [5α-dihydrotestosterone]	failed to reverse the effect of rHA
CC(=O)[C@H]1CC[C@H]2[C@@H]3CCC4=CC(=O)CC[C@]4(C)[C@H]3CC[C@]12C [Progesterone]	failed to reverse the effect of rHA
C[C@]1(O)CC[C@H]2[C@@H]3CCC4=CC(=O)CCC4=C3C=C[C@@]21C [R1881]	failed to reverse the effect of rHA
C[C@]12CCC(=O)C=C1CC[C@@H]1[C@@H]2[C@@H](O)C[C@@]2(C)[C@H]1CC[C@]2(O)C(=O)CO [hydrocortisone]	failed to reverse the effect of rHA
N[C@@H](Cc1cc(I)c(Oc2cc(I)c(O)c(I)c2)c(I)c1)C(=O)O [thyroxine]	failed to reverse the effect of rHA
